Reference: ChEMBL document CHEMBL4138123, “Design, synthesis and biological evaluation of novel pyrazolochalcones as potential modulators of PI3K/Akt/mTOR pathway and inducers of apoptosis in breast cancer cells” (Eur J Med Chem, 2017)

Legend:
Type in all cases: functional
[1] = tested on: MCF7; assay: Cytotoxicity against human MCF7 cells assessed as cell growth at 0.01 uM after 48 hrs by sulforhodamine B assay relative to control; conditions: MCF7, 48 h, read-out: Activity
[2] = tested on: SK-MEL-5; assay: Cytotoxicity against human SK-MEL-5 cells assessed as growth inhibition after 48 hrs by sulforhodamine B assay; conditions: SK-MEL-5, 48 h
[3] = tested on: RPMI-8226; assay: Cytotoxicity against human RPMI8226 cells assessed as cell growth at 0.01 uM after 48 hrs by sulforhodamine B assay relative to control; conditions: RPMI-8226, 48 h, read-out: Activity
[4] = tested on: DU-145; assay: Cytotoxicity against human DU145 cells assessed as growth inhibition after 48 hrs by sulforhodamine B assay; conditions: DU-145, 48 h
[5] = tested on: SK-MEL-5; assay: Cytotoxicity against human SK-MEL-5 cells assessed as cell growth at 0.1 uM after 48 hrs by sulforhodamine B assay relative to control; conditions: SK-MEL-5, 48 h, read-out: Activity
[6] = tested on: NCI-H460; assay: Cytotoxicity against human NCI-H460 cells assessed as cell growth at 0.1 uM after 48 hrs by sulforhodamine B assay relative to control; conditions: NCI-H460, 48 h, read-out: Activity
[7] = tested on: NCI-H322M; assay: Cytotoxicity against human NCI-H322M cells assessed as cell growth at 1 uM after 48 hrs by sulforhodamine B assay relative to control; conditions: read-out: Activity
[8] = tested on: Malme-3M; assay: Cytotoxicity against human MALME-3M cells assessed as cell growth at 100 uM after 48 hrs by sulforhodamine B assay relative to control; conditions: read-out: Activity
[9] = tested on: DU-145; assay: Cytotoxicity against human DU145 cells assessed as cell growth at 1 uM after 48 hrs by sulforhodamine B assay relative to control; conditions: DU-145, 48 h, read-out: Activity
[10] = tested on: NCI-H226; assay: Cytotoxicity against human NCI-H226 cells assessed as cell growth at 10 uM after 48 hrs by sulforhodamine B assay relative to control; conditions: NCI-H226, 48 h, read-out: Activity
[11] = tested on: HOP-62; assay: Cytotoxicity against human HOP62 cells assessed as cell growth at 0.01 uM after 48 hrs by sulforhodamine B assay relative to control; conditions: HOP-62, 48 h, read-out: Activity
[12] = tested on: UACC-62; assay: Cytotoxicity against human UACC62 cells assessed as cell growth at 100 uM after 48 hrs by sulforhodamine B assay relative to control; conditions: UACC-62, 48 h, read-out: Activity
[13] = tested on: TK-10; assay: Cytotoxicity against human TK10 cells assessed as cell growth at 10 uM after 48 hrs by sulforhodamine B assay relative to control; conditions: TK-10, 48 h, read-out: Activity
[14] = tested on: KM12; assay: Cytotoxicity against human KM12 cells assessed as cell growth at 0.01 uM after 48 hrs by sulforhodamine B assay relative to control; conditions: KM12, 48 h, read-out: Activity
[15] = tested on: SK-MEL-28; assay: Cytotoxicity against human SK-MEL-28 cells assessed as cell growth at 0.1 uM after 48 hrs by sulforhodamine B assay relative to control; conditions: SK-MEL-28, 48 h, read-out: Activity
[16] = tested on: CCRF-CEM; assay: Cytotoxicity against human CCRF-CEM cells assessed as cell growth at 1 uM after 48 hrs by sulforhodamine B assay relative to control; conditions: read-out: Activity
[17] = tested on: NCI-H322M; assay: Cytotoxicity against human NCI-H322M cells assessed as growth inhibition after 48 hrs by sulforhodamine B assay; conditions: for CC50: read-out: LC50 (the source's name)
[18] = tested on: T47D; assay: Cytotoxicity against human T47D cells assessed as cell growth at 100 uM after 48 hrs by sulforhodamine B assay relative to control; conditions: read-out: Activity
[19] = tested on: COLO 205; assay: Cytotoxicity against human COLO205 cells assessed as cell growth at 1 uM after 48 hrs by sulforhodamine B assay relative to control; conditions: COLO 205, 48 h, read-out: Activity
[20] = tested on: KM12; assay: Cytotoxicity against human KM12 cells assessed as cell growth at 1 uM after 48 hrs by sulforhodamine B assay relative to control; conditions: KM12, 48 h, read-out: Activity
[21] = tested on: MDA-MB-435; assay: Cytotoxicity against human MDA-MB-435 cells assessed as growth inhibition after 48 hrs by sulforhodamine B assay; conditions: MDA-MB-435, 48 h
[22] = tested on: MDA-MB-231; assay: Cytotoxicity against human MDA-MB-231 cells assessed as cell growth at 1 uM after 48 hrs by sulforhodamine B assay relative to control; conditions: MDA-MB-231, 48 h, read-out: Activity
[23] = tested on: RXF 393; assay: Cytotoxicity against human RXF393 cells assessed as cell growth at 1 uM after 48 hrs by sulforhodamine B assay relative to control; conditions: RXF 393, 48 h, read-out: Activity
[24] = tested on: COLO 205; assay: Cytotoxicity against human COLO205 cells assessed as cell growth at 100 uM after 48 hrs by sulforhodamine B assay relative to control; conditions: COLO 205, 48 h, read-out: Activity
[25] = tested on: TK-10; assay: Cytotoxicity against human TK10 cells assessed as cell growth at 0.1 uM after 48 hrs by sulforhodamine B assay relative to control; conditions: TK-10, 48 h, read-out: Activity
[26] = tested on: OVCAR-3; assay: Cytotoxicity against human OVCAR3 cells assessed as cell growth at 0.01 uM after 48 hrs by sulforhodamine B assay relative to control; conditions: OVCAR-3, 48 h, read-out: Activity
[27] = tested on: NCI-H522; assay: Cytotoxicity against human NCI-H522 cells assessed as growth inhibition after 48 hrs by sulforhodamine B assay; conditions: NCI-H522, 48 h
[28] = tested on: 786-0; assay: Cytotoxicity against human 786-0 cells assessed as cell growth at 0.01 uM after 48 hrs by sulforhodamine B assay relative to control; conditions: 786-0, 48 h, read-out: Activity
[29] = tested on: UO-31; assay: Cytotoxicity against human UO31 cells assessed as growth inhibition after 48 hrs by sulforhodamine B assay; conditions: UO-31, 48 h
[30] = tested on: Malme-3M; assay: Cytotoxicity against human MALME-3M cells assessed as growth inhibition after 48 hrs by sulforhodamine B assay
[31] = tested on: SF-268; assay: Cytotoxicity against human SF268 cells assessed as cell growth at 0.1 uM after 48 hrs by sulforhodamine B assay relative to control; conditions: SF-268, 48 h, read-out: Activity
[32] = tested on: MDA-MB-468; assay: Cytotoxicity against human MDA-MB-468 cells assessed as growth inhibition after 48 hrs by sulforhodamine B assay; conditions: MDA-MB-468, 48 h
[33] = tested on: NCI-H23; assay: Cytotoxicity against human NCI-H23 cells assessed as cell growth at 10 uM after 48 hrs by sulforhodamine B assay relative to control; conditions: NCI-H23, 48 h, read-out: Activity
[34] = tested on: DU-145; assay: Cytotoxicity against human DU145 cells assessed as cell growth at 10 uM after 48 hrs by sulforhodamine B assay relative to control; conditions: DU-145, 48 h, read-out: Activity
[35] = tested on: HCT-116; assay: Cytotoxicity against human HCT116 cells assessed as growth inhibition after 48 hrs by sulforhodamine B assay; conditions: HCT-116, 48 h

SMILES: COc1cc(-c2cc(/C=C/C(=O)c3ccc4c(c3)OCO4)[nH]n2)cc(OC)c1OC
- growth at 0.01 µM [1]: 89%
- LC50 (concentration killing 50% of cells) [2]: > 100 µM
- TGI [2]: > 100 µM
- growth at 0.01 µM [3]: 92%
- TGI [4]: 9.56 µM
- CC50 ([4]; read-out: LC50 (the source's name)): > 100 µM
- growth at 0.1 µM [5]: 97%
- growth at 0.1 µM [6]: 105%
- growth at 1 µM [7]: 93%
- growth at 100 µM [8]: -56%
- growth at 1 µM [9]: 90%
- growth at 10 µM [10]: 14%
- growth at 0.01 µM [11]: 101%
- growth at 100 µM [12]: 22%
- growth at 10 µM [13]: -31%
- growth at 0.01 µM [14]: 96%
- growth at 0.1 µM [15]: 106%
- growth at 1 µM [16]: 67%
- TGI [17]: 19.1 µM
- CC50 [17]: > 100 µM
- growth at 100 µM [18]: -19%
- growth at 1 µM [19]: 93%
- growth at 1 µM [20]: 89%
- LC50 [21]: > 100 µM
- growth at 1 µM [22]: 86%
- growth at 1 µM [23]: 80%
- growth at 100 µM [24]: -100%
- growth at 0.1 µM [25]: 87%
- growth at 0.01 µM [26]: 104%
- LC50 [27]: 5.37 µM
- TGI [27]: 2.35 µM
- growth at 0.01 µM [28]: 96%
- LC50 [29]: 26.3 µM
- TGI [29]: 5.44 µM
- LC50 [30]: 84.5 µM
- TGI [30]: 20.8 µM
- growth at 0.1 µM [31]: 90%
- GI50 [32]: 1.4 µM
- LC50 [32]: 5.82 µM
- TGI [32]: 2.86 µM
- growth at 10 µM [33]: 63%
- growth at 10 µM [34]: -2%

SMILES: COc1cc(-c2cc(/C=C/C(=O)c3ccc(Cl)c(Cl)c3)[nH]n2)cc(OC)c1OC
- growth at 0.01 µM [1]: 105%
- LC50 (concentration killing 50% of cells) [2]: > 100 µM
- TGI [2]: 46.9 µM
- growth at 0.01 µM [3]: 100%
- growth at 0.1 µM [5]: 97%
- growth at 0.1 µM [6]: 105%
- growth at 1 µM [7]: 94%
- growth at 100 µM [8]: 24%
- LC50 [35]: > 100 µM
- TGI [35]: 21.5 µM
- growth at 10 µM [10]: 67%
- growth at 0.01 µM [11]: 99%
- growth at 100 µM [12]: 14%
- growth at 10 µM [13]: 46%
- growth at 0.01 µM [14]: 96%
- growth at 0.1 µM [15]: 114%
- growth at 1 µM [16]: 71%
- TGI [17]: > 100 µM
- CC50 [17]: > 100 µM
- growth at 100 µM [18]: -36%
- growth at 1 µM [19]: 54%
- growth at 1 µM [20]: 85%
- LC50 [21]: > 100 µM
- TGI [21]: > 100 µM
- growth at 1 µM [22]: 89%
- growth at 1 µM [23]: 81%
- growth at 100 µM [24]: -42%
- growth at 0.1 µM [25]: 91%
- growth at 0.01 µM [26]: 103%
- LC50 [27]: 6.97 µM
- TGI [27]: 3.04 µM
- growth at 0.01 µM [28]: 95%
- LC50 [29]: > 100 µM
- TGI [29]: > 100 µM
- LC50 [30]: > 100 µM
- TGI [30]: > 100 µM
- growth at 0.1 µM [31]: 92%
- GI50 [32]: 1.98 µM
- LC50 [32]: > 100 µM
- TGI [32]: 7.22 µM
- growth at 10 µM [33]: 79%

SMILES: COc1cc(C(=O)/C=C/c2cc(-c3cc(OC)c(OC)c(OC)c3)n[nH]2)cc(OC)c1OC
- growth at 0.01 µM [1]: 95%
- LC50 (concentration killing 50% of cells) [2]: 5.49 µM
- TGI [2]: 2.94 µM
- growth at 0.01 µM [3]: 97%
- growth at 0.1 µM [5]: 95%
- growth at 0.1 µM [6]: 104%
- growth at 1 µM [7]: 89%
- growth at 100 µM [8]: -94%
- LC50 [35]: 5.12 µM
- TGI [35]: 2.59 µM
- growth at 10 µM [10]: -92%
- growth at 0.01 µM [11]: 97%
- growth at 100 µM [12]: -97%
- growth at 10 µM [13]: -98%
- growth at 0.01 µM [14]: 101%
- growth at 0.1 µM [15]: 105%
- growth at 1 µM [16]: 67%
- TGI [17]: 4.85 µM
- CC50 [17]: 14.4 µM
- growth at 100 µM [18]: -92%
- growth at 1 µM [19]: 98%
- growth at 1 µM [20]: 79%
- LC50 [21]: 5.82 µM
- TGI [21]: 2.95 µM
- growth at 1 µM [22]: 73%
- growth at 1 µM [23]: 65%
- growth at 100 µM [24]: -100%
- growth at 0.1 µM [25]: 109%
- growth at 0.01 µM [26]: 107%
- LC50 [27]: 4.22 µM
- TGI [27]: 1.7 µM
- growth at 0.01 µM [28]: 101%
- LC50 [29]: 5.16 µM
- TGI [29]: 2.48 µM
- LC50 [30]: 8.99 µM
- TGI [30]: 4.09 µM
- growth at 0.1 µM [31]: 99%
- GI50 [32]: 1.15 µM
- LC50 [32]: 5.37 µM
- TGI [32]: 2.48 µM
